Data on 16 molecules can be found in PubChem BioAssay AID200 (DTP/NCI, 2004).

Where “and” joins values, the source holds several entries; their conditions need not be identical. Equal values may be shown once. Toxic doses and inconclusive results are not listed. Where a SMILES comes first, the peptide text is derived from it.

The assay has as its system B6C3F1 mice, B16 melanoma ip, median survival T/C. The assay can be described thus: NCI In Vivo Anticancer Drug Screen. Data for tumor model B16 Melanoma (intraperitoneal) in B6C3F1 mice. As to conditions: endpoint: median survival time, higher = longer survival. Here is the method:
The antitumor activity of compounds was measured in mice bearing transplantable tumors. Survival or tumor size were measured and the results are expressed as the measurement made in the treated group (T) divided by the measurement made in the vehicle treated control group (C). The tumor model used in this assay is B16 Melanoma (intraperitoneal) in B6C3F1 mice

Setting [1] is: dose: 1.56 mg/kg/injection, schedule: Q01DX009 (ip), vehicle: saline with Tween-80.
The mark [2] stands for this setting: dose: 12.5 mg/kg/injection, schedule: Q01DX009 (ip), vehicle: saline.
Setting [3] is: dose: 25.0 mg/kg/injection, schedule: Q01DX009 (ip), vehicle: saline with Tween-80.
Setting [4] is: dose: 25.0 mg/kg/injection, schedule: Q01DX009 (ip), vehicle: saline.
[5] abbreviates: dose: 50.0 mg/kg/injection, schedule: Q01DX009 (ip), vehicle: saline with Tween-80.
[6] abbreviates: dose: 50.0 mg/kg/injection, schedule: Q01DX009 (ip), vehicle: saline.
[7] abbreviates: dose: 100.0 mg/kg/injection, schedule: Q01DX009 (ip), vehicle: saline with Tween-80.
[8] abbreviates: dose: 100.0 mg/kg/injection, schedule: Q01DX009 (ip), vehicle: saline.
Where [9] appears, read: dose: 200.0 mg/kg/injection, schedule: Q01DX009 (ip), vehicle: saline.

Turning to `Cn1c(=O)c2c(nc(CCCCc3nc4c(c(=O)n(C)c(=O)n4C)n3C)n2C)n(C)c1=O`, the T/C runs as follows: (dose: 0.78 mg/kg/injection, schedule: Q01DX009 (ip), vehicle: saline with Tween-80) 91 % of control; under setting [1], 109 % of control; (dose: 3.13 mg/kg/injection, schedule: Q01DX009 (ip), vehicle: saline with Tween-80) 93 % of control; (dose: 6.25 mg/kg/injection, schedule: Q01DX009 (ip), vehicle: saline with Tween-80) 93 % of control.

As to `Clc1cc(Cl)c(C[N+]23CN4CN(CN(C4)C2)C3)cc1Cl`, the T/C is, setting by setting: (dose: 12.5 mg/kg/injection, schedule: Q01DX009 (ip), vehicle: saline with Tween-80) 101 % of control; under setting [2], 102 % of control; under setting [3], 105 % of control; under setting [4], 100 % of control; under setting [5], 102 % of control; under setting [6], 106 % of control. Besides, the T/C is 107 % of control under setting [7] and 111 % of control under setting [8].

For `O=C1N(CC2CO2)CCN1CC1CO1` (configuration not stated), the T/C runs as follows: under setting [2], 117 % of control and 97 % of control; (dose: 12.5 mg/kg/injection, schedule: Q01DX009 (ip), vehicle: suspension in saline) 114 % of control; under setting [4], 118 % of control and 107 % of control; (dose: 25.0 mg/kg/injection, schedule: Q01DX009 (ip), vehicle: suspension in saline) 124 % of control; under setting [6], 115 % of control; (dose: 50.0 mg/kg/injection, schedule: Q01DX009 (ip), vehicle: suspension in saline) 165 % of control. The T/C (dose: 100.0 mg/kg/injection, schedule: Q01DX009 (ip), vehicle: suspension in saline) is 90 % of control and the T/C under setting [9] is 122 % of control.

As for `C[n+]1cccc(NC(=O)c2ccc(NC(=O)C34CCC(C(=O)Nc5ccc(C(=O)Nc6ccc[n+](C)c6)cc5)(CC3)CC4)cc2)c1`, the T/C reads like this: (dose: 2.5 mg/kg/injection, schedule: Q01DX009 (ip), vehicle: saline with Tween-80) 114 % of control; (dose: 5.0 mg/kg/injection, schedule: Q01DX009 (ip), vehicle: saline with Tween-80) 111 % of control and 117 % of control and 118 % of control; (dose: 10.0 mg/kg/injection, schedule: Q01DX009 (ip), vehicle: saline with Tween-80) 119 % of control; (dose: 20.0 mg/kg/injection, schedule: Q01DX009 (ip), vehicle: saline with Tween-80) 121 % of control and 99 % of control.

Take `CC(O)C(NC(=O)CNC(=O)CNC(=O)OCc1ccccc1)C(=O)O` (configuration not stated) (HELM PEPTIDE1{[O=C(OCc1ccccc1)[*:2]].G.G.[CC(O)C(N[*:1])C(=O)O]}$$$$V2.0): the T/C by setting is: (dose: 100.0 mg/kg/injection, schedule: Q01DX009 (ip), vehicle: Klucel (hydroxypropylcellulose) (HPC)) 103 % of control; (dose: 200.0 mg/kg/injection, schedule: Q01DX009 (ip), vehicle: Klucel (hydroxypropylcellulose) (HPC)) 106 % of control; (dose: 400.0 mg/kg/injection, schedule: Q01DX009 (ip), vehicle: Klucel (hydroxypropylcellulose) (HPC)) 113 % of control.

As for `CC(=O)Oc1c(C)[nH]ccc1=O`, the T/C is, setting by setting: under setting [4], 93 % of control and 104 % of control; under setting [6], 108 % of control and 105 % of control; under setting [8], 115 % of control and 94 % of control; under setting [9], 94 % of control and 106 % of control.

For `COc1cc2c(c(OC)c1O)-c1ccc(SC)c(=O)cc1C(NC(C)=O)CC2` (configuration not stated), the T/C (dose: 2.5 mg/kg/injection, schedule: Q01DX009 (ip), vehicle: water) is 119 % of control; the T/C (dose: 5.0 mg/kg/injection, schedule: Q01DX009 (ip), vehicle: water) was 119 % of control; the T/C (dose: 10.0 mg/kg/injection, schedule: Q01DX009 (ip), vehicle: water) was 116 % of control; the T/C (dose: 20.0 mg/kg/injection, schedule: Q01DX009 (ip), vehicle: water) was 119 % of control; the T/C (dose: 40.0 mg/kg/injection, schedule: Q01DX009 (ip), vehicle: water) was 122 % of control.

Regarding `COC1=C(C)C(=O)C2=C(C1=O)C1C3CC4=C(C(=O)C(OC)=C(C)C4=O)C(CNC(=O)C(C)=O)N3C(C#N)C(C2)N1C` (configuration not stated), the T/C is, setting by setting: (dose: 0.12 mg/kg/injection, schedule: Q01DX009 (ip), vehicle: Klucel (hydroxypropylcellulose) (HPC)) 95 % of control; (dose: 0.25 mg/kg/injection, schedule: Q01DX009 (ip), vehicle: Klucel (hydroxypropylcellulose) (HPC)) 103 % of control and 106 % of control; (dose: 0.5 mg/kg/injection, schedule: Q01DX009 (ip), vehicle: Klucel (hydroxypropylcellulose) (HPC)) 99 % of control and 106 % of control; (dose: 1.0 mg/kg/injection, schedule: Q01DX009 (ip), vehicle: Klucel (hydroxypropylcellulose) (HPC)) 115 % of control and 103 % of control.

Take `CC1(C)N=C(N)N=C(N)N1c1ccc(CCCCc2ccc(S(=O)(=O)F)cc2Cl)c(Cl)c1`: the T/C is 100 % of control (dose: 1.56 mg/kg/injection, schedule: Q01DX009 (ip), vehicle: other); 122 % of control under setting [1]; 104 % of control (dose: 3.12 mg/kg/injection, schedule: Q01DX009 (ip), vehicle: other); 109 % of control (dose: 6.25 mg/kg/injection, schedule: Q01DX009 (ip), vehicle: other); 102 % of control (dose: 12.5 mg/kg/injection, schedule: Q01DX009 (ip), vehicle: other); 156 % of control under setting [3].

Take `Cn1c(-c2ccc(/C=N\N3CCN(/N=C/c4ccc(-c5c[n+]6ccsc6n5C)cc4)CC3)cc2)c[n+]2ccsc12`: the T/C by setting is: (dose: 0.75 mg/kg/injection, schedule: Q01DX009 (ip), vehicle: saline with Tween-80) 103 % of control; (dose: 1.5 mg/kg/injection, schedule: Q01DX009 (ip), vehicle: saline with Tween-80) 104 % of control; (dose: 3.0 mg/kg/injection, schedule: Q01DX009 (ip), vehicle: saline with Tween-80) 113 % of control; (dose: 6.0 mg/kg/injection, schedule: Q01DX009 (ip), vehicle: saline with Tween-80) 113 % of control.

As for `CC1(C)CC2(C)OC2C2(C1)N=NC(=Nc1ccccc1)O2` (configuration not stated), the T/C is 96 % of control under setting [3], 100 % of control under setting [5] and 89 % of control under setting [7].

On to `C#CCNC1=C(C)C(=O)C2=C(C1=O)[C@H](COC(N)=O)[C@]1(OC)[C@@H]3N[C@@H]3CN21`, for which the T/C was 91 % of control (dose: 0.75 mg/kg/injection, schedule: Q01DX009 (ip), vehicle: distilled water + Tween-80); 98 % of control (dose: 1.5 mg/kg/injection, schedule: Q01DX009 (ip), vehicle: distilled water + Tween-80); 241 % of control (dose: 6.25 mg/kg/injection, schedule: Q01DX009 (ip), vehicle: distilled water + Tween-80); 98 % of control (dose: 12.0 mg/kg/injection, schedule: Q01DX009 (ip), vehicle: distilled water + Tween-80).

Regarding `CCOC(=O)C(CC(C)C)NC(=O)C(Cc1ccc(N(CCCl)CCCl)cc1)NC(C)=O` (configuration not stated), the T/C was 105 % of control (dose: 8.0 mg/kg/injection, schedule: Q01DX009 (ip), vehicle: saline with Tween-80); 102 % of control (dose: 16.0 mg/kg/injection, schedule: Q01DX009 (ip), vehicle: saline with Tween-80); 160 % of control (dose: 64.0 mg/kg/injection, schedule: Q01DX009 (ip), vehicle: saline with Tween-80).

Take `CNC(=O)OCc1c(COC(=O)NC)c(-c2ccccc2)n(C)c1-c1ccccc1`: the T/C was 172 % of control (dose: 12.5 mg/kg/injection, schedule: Q01DX009 (ip), vehicle: distilled water + Tween-80) and 177 % of control (dose: 25.0 mg/kg/injection, schedule: Q01DX009 (ip), vehicle: distilled water + Tween-80).

Consider `O=C1C=C(Nc2ccc(O)cc2)c2ccccc2C1=O`, for which the T/C by setting is: (dose: 5.0 mg/kg/injection, schedule: Q01DX009 (ip), vehicle: saline) 102 % of control; (dose: 10.0 mg/kg/injection, schedule: Q01DX009 (ip), vehicle: saline) 98 % of control; (dose: 20.0 mg/kg/injection, schedule: Q01DX009 (ip), vehicle: saline) 93 % of control.

As for `O=C1C=CC(=O)O1` (tested in a mixture with another compound), the T/C reads like this: under setting [2], 101 % of control; (dose: 12.5 mg/kg/injection, schedule: Q04DX003 (ip), vehicle: saline) 104 % of control; under setting [4], 113 % of control; (dose: 25.0 mg/kg/injection, schedule: Q04DX003 (ip), vehicle: saline) 101 % of control and 106 % of control; under setting [6], 117 % of control; (dose: 50.0 mg/kg/injection, schedule: Q04DX003 (ip), vehicle: saline) 108 % of control. In addition, where the note is “dose: 400.0 mg/kg/injection, schedule: Q01DX009 (ip), vehicle: saline”, the T/C was 123 % of control.
